Assay: Binding affinity towards guinea pig Opioid receptor kappa 1 using radioligand [3H]U69,593

Structure (SMILES)	Ki
CN(C)C(=O)c1ccc2c3c1OC1C(O)C=C[C@H]4[C@@H](C2)N(C)CC[C@]314 (stereo partly drawn) [4,10N,10N-trimethyl-14-hydroxy-(1S,5R,17R)-12-oxa-4-azapentacyclo[9.6.1.01,13.05,17.07,18]octadeca-7,9,11(18),15-tetraene-10-carboxamide]	> 10 µM
CNC(=O)c1ccc2c3c1OC1C(O)C=C[C@H]4[C@@H](C2)N(C)CC[C@]314 (stereo partly drawn) [4,10N-dimethyl-14-hydroxy-(1S,5R,17R)-12-oxa-4-azapentacyclo[9.6.1.01,13.05,17.07,18]octadeca-7,9,11(18),15-tetraene-10-carboxamide]	> 10 µM
CN1CC[C@]23c4c5ccc(C(N)=O)c4OC2C(O)C=C[C@H]3[C@H]1C5 (stereo partly drawn) [14-hydroxy-4-methyl-(1S,5R,17R)-12-oxa-4-azapentacyclo[9.6.1.01,13.05,17.07,18]octadeca-7,9,11(18),15-tetraene-10-carboxamide]	1.9 µM

From BindingDB's records for doi:10.1016/s0960-894x(01)00278-5 (Pharmacia, 2001)
